Assay results reported in patent US20230085307A1, “PYRIDAZINONE COMPOUND AND HERBICIDE” (NISSAN CHEMICAL CORPORATION, priority 2019, published 2023).

Assays:
velvetleaf [1] = assay: Test Example 4: herbicidal effect by soil treatment (Table 19, symbol M); assay type: in vivo, velvetleaf (Abutilon theophrasti); conditions: amount of applied herbicide 320 g/ha
In short: (§1)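 Herbicidal effect was rated 3 weeks after treatment, using the scoring criteria of an earlier test. The compound, formulated as an emulsion and diluted in water to a set herbicide amount, had been sprayed uniformly on soil over freshly sown seeds. Growth took place in a greenhouse at 25° C. to 30° C.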

wild oat [2] = assay: Test Example 5: herbicidal effect by foliage application, plastic box (Table 20, symbol I); assay type: in vivo, wild oat (Avena fatua); conditions: foliage application, 320 g/ha
In short: (§2)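 Foliar spray test: emulsion formulation diluted in water to a set application rate, sprayed onto 14-day-old plants raised in diluvial soil at 25° C to 30° C under glass. Both herbicidal effect and crop effect rated visually three weeks later.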

Italian ryegrass [3] = assay: Test Example 4: herbicidal effect by soil treatment (Table 19, symbol K); assay type: in vivo, Italian ryegrass (Lolium multiflorum); conditions: amount of applied herbicide 320 g/ha
In short: as §1

blackgrass [4] = assay: Test Example 4: herbicidal effect by soil treatment (Table 19, symbol J); assay type: in vivo, blackgrass (Alopecurus myosuroides); conditions: amount of applied herbicide 320 g/ha
In short: as §1

barnyard grass [5] = assay: Test Example 4: herbicidal effect by soil treatment (Table 19, symbol H); assay type: in vivo, barnyard grass (Echinochloa crus-galli); conditions: amount of applied herbicide 320 g/ha
In short: as §1

false cleavers [6] = assay: Test Example 4: herbicidal effect by soil treatment (Table 19, symbol Q); assay type: in vivo, false cleavers (Galium spurium); conditions: amount of applied herbicide 320 g/ha
In short: as §1

persian speedwell [7] = assay: Test Example 4: herbicidal effect by soil treatment (Table 19, symbol R); assay type: in vivo, Persian speedwell (Veronica persica); conditions: amount of applied herbicide 320 g/ha
In short: as §1

green foxtail [8] = assay: Test Example 5: herbicidal effect by foliage application, plastic box (Table 20, symbol G); assay type: in vivo, green foxtail (Setaria viridis); conditions: foliage application, 320 g/ha
In short: as §2

lambsquarters [9] = assay: Test Example 4: herbicidal effect by soil treatment (Table 19, symbol O); assay type: in vivo, lambsquarters (Chenopodium album); conditions: amount of applied herbicide 320 g/ha
In short: as §1

redroot pigweed [10] = assay: Test Example 5: herbicidal effect by foliage application, plastic box (Table 20, symbol N); assay type: in vivo, redroot pigweed (Amaranthus retroflexus); conditions: foliage application, 320 g/ha
In short: as §2

velvetleaf [11] = assay: Test Example 5: herbicidal effect by foliage application, plastic box (Table 20, symbol M); assay type: in vivo, velvetleaf (Abutilon theophrasti); conditions: foliage application, 320 g/ha
In short: as §2

southern crabgrass [12] = assay: Test Example 4: herbicidal effect by soil treatment (Table 19, symbol F); assay type: in vivo, southern crabgrass (Digitaria ciliaris); conditions: amount of applied herbicide 320 g/ha
In short: as §1

barnyard grass [13] = assay: Test Example 5: herbicidal effect by foliage application, plastic box (Table 20, symbol H); assay type: in vivo, barnyard grass (Echinochloa crus-galli); conditions: foliage application, 320 g/ha
In short: as §2

barnyard grass [14] = assay: Test Example 3: herbicidal effect by foliage application, Wagner pot (Table 18, symbol H); assay type: in vivo, barnyard grass (Echinochloa crus-galli); conditions: amount of applied herbicide 320 g/ha
In short: (§3)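 Plants were sown in alluvial soil held under 0.1–0.5 cm standing water and grown 14 days in a greenhouse at 25–30 °C. An emulsifiable formulation, water-diluted to the set dose, was then sprayed onto the foliage, and effects were scored three weeks later using previously defined criteria.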

false cleavers [15] = assay: Test Example 5: herbicidal effect by foliage application, plastic box (Table 20, symbol Q); assay type: in vivo, false cleavers (Galium spurium); conditions: foliage application, 320 g/ha
In short: as §2

blackgrass [16] = assay: Test Example 5: herbicidal effect by foliage application, plastic box (Table 20, symbol J); assay type: in vivo, blackgrass (Alopecurus myosuroides); conditions: foliage application, 320 g/ha
In short: as §2

windgrass [17] = assay: Test Example 5: herbicidal effect by foliage application, plastic box (Table 20, symbol L); assay type: in vivo, windgrass (Apera spica-venti); conditions: foliage application, 320 g/ha
In short: as §2

rice flat sedge = assay: Test Example 3: herbicidal effect by foliage application, Wagner pot (Table 18, symbol E); assay type: in vivo, rice flat sedge (Cyperus iria); conditions: amount of applied herbicide 320 g/ha
In short: as §3

wild oat [18] = assay: Test Example 4: herbicidal effect by soil treatment (Table 19, symbol I); assay type: in vivo, wild oat (Avena fatua); conditions: amount of applied herbicide 320 g/ha
In short: as §1

southern crabgrass [19] = assay: Test Example 5: herbicidal effect by foliage application, plastic box (Table 20, symbol F); assay type: in vivo, southern crabgrass (Digitaria ciliaris); conditions: foliage application, 320 g/ha
In short: as §2

Chinese sprangletop = assay: Test Example 3: herbicidal effect by foliage application, Wagner pot (Table 18, symbol D); assay type: in vivo, chinese sprangletop (Leptochloa chinensis); conditions: amount of applied herbicide 320 g/ha
In short: as §3

chickweed [20] = assay: Test Example 4: herbicidal effect by soil treatment (Table 19, symbol P); assay type: in vivo, common chickweed (Stellaria media); conditions: amount of applied herbicide 320 g/ha
In short: as §1

persian speedwell [21] = assay: Test Example 5: herbicidal effect by foliage application, plastic box (Table 20, symbol R); assay type: in vivo, Persian speedwell (Veronica persica); conditions: foliage application, 320 g/ha
In short: as §2

windgrass [22] = assay: Test Example 4: herbicidal effect by soil treatment (Table 19, symbol L); assay type: in vivo, windgrass (Apera spica-venti); conditions: amount of applied herbicide 320 g/ha
In short: as §1

Italian ryegrass [23] = assay: Test Example 5: herbicidal effect by foliage application, plastic box (Table 20, symbol K); assay type: in vivo, Italian ryegrass (Lolium multiflorum); conditions: foliage application, 320 g/ha
In short: as §2

chickweed [24] = assay: Test Example 5: herbicidal effect by foliage application, plastic box (Table 20, symbol P); assay type: in vivo, common chickweed (Stellaria media); conditions: foliage application, 320 g/ha
In short: as §2

lambsquarters [25] = assay: Test Example 5: herbicidal effect by foliage application, plastic box (Table 20, symbol O); assay type: in vivo, lambsquarters (Chenopodium album); conditions: foliage application, 320 g/ha
In short: as §2

green foxtail [26] = assay: Test Example 4: herbicidal effect by soil treatment (Table 19, symbol G); assay type: in vivo, green foxtail (Setaria viridis); conditions: amount of applied herbicide 320 g/ha
In short: as §1

redroot pigweed [27] = assay: Test Example 4: herbicidal effect by soil treatment (Table 19, symbol N); assay type: in vivo, redroot pigweed (Amaranthus retroflexus); conditions: amount of applied herbicide 320 g/ha
In short: as §1

[28] = evaluated three weeks after application

## COc1cc(F)ccc1-c1sc2ccc(C)cc2c1-c1c(O)c(C)nn(C)c1=O [2-148]
Velvetleaf [1]
  M: velvetleaf, herbicidal effect rating: 3 (Herbicidal rate of 40% or more and less than 70%)
Wild oat [2]; [28]
  herbicidal effect on I: wild oat (criteria 0-5): 3 (Herbicidal rate of 40% or more and less than 70%)
Italian ryegrass [3]
  K: Italian ryegrass, herbicidal effect rating: 1 (Herbicidal rate of 5% or more and less than 20%)
Blackgrass [4]
  J: blackgrass, herbicidal effect rating: 3 (Herbicidal rate of 40% or more and less than 70%)
Barnyard grass [5]
  H: barnyard grass, herbicidal effect rating: 4 (Herbicidal rate of 70% or more and less than 90%)
False cleavers [6]
  Q: false cleavers, herbicidal effect rating: 5 (Herbicidal rate of 90% or more (almost completely withered))
Persian speedwell [7]
  R: persian speedwell, herbicidal effect rating: 5 (Herbicidal rate of 90% or more (almost completely withered))
Green foxtail [8]; [28]
  herbicidal effect on G: green foxtail (criteria 0-5): 5 (Herbicidal rate of 90% or more (almost completely withered))
Lambsquarters [9]
  O: lambsquarters, herbicidal effect rating: 5 (Herbicidal rate of 90% or more (almost completely withered))
Redroot pigweed [10]; [28]
  herbicidal effect on N: redroot pigweed (criteria 0-5): 5 (Herbicidal rate of 90% or more (almost completely withered))
Velvetleaf [11]; [28]
  herbicidal effect on M: velvetleaf (criteria 0-5): 4 (Herbicidal rate of 70% or more and less than 90%)
Southern crabgrass [12]
  F: southern crabgrass, herbicidal effect rating: 3 (Herbicidal rate of 40% or more and less than 70%)
Barnyard grass [13]; [28]
  herbicidal effect on H: barnyard grass (criteria 0-5): 5 (Herbicidal rate of 90% or more (almost completely withered))
Barnyard grass [14]
  herbicidal effect on H: barnyard grass: 5 (Herbicidal rate of 90% or more (almost completely withered))
False cleavers [15]; [28]
  herbicidal effect on Q: false cleavers (criteria 0-5): 5 (Herbicidal rate of 90% or more (almost completely withered))
Blackgrass [16]; [28]
  herbicidal effect on J: blackgrass (criteria 0-5): 4 (Herbicidal rate of 70% or more and less than 90%)
Windgrass [17]; [28]
  herbicidal effect on L: windgrass (criteria 0-5): 3 (Herbicidal rate of 40% or more and less than 70%)
Rice flat sedge
  herbicidal effect on E: rice flat sedge: 5 (Herbicidal rate of 90% or more (almost completely withered))
Wild oat [18]
  I: wild oat, herbicidal effect rating: 0 (Herbicidal rate of 5% or less (almost no effect))
Southern crabgrass [19]; [28]
  herbicidal effect on F: southern crabgrass (criteria 0-5): 5 (Herbicidal rate of 90% or more (almost completely withered))
Chinese sprangletop
  herbicidal effect on D: Chinese sprangletop: 3 (Herbicidal rate of 40% or more and less than 70%)
Chickweed [20]
  P: chickweed, herbicidal effect rating: 5 (Herbicidal rate of 90% or more (almost completely withered))
Persian speedwell [21]; [28]
  herbicidal effect on R: persian speedwell (criteria 0-5): 5 (Herbicidal rate of 90% or more (almost completely withered))
Windgrass [22]
  L: windgrass, herbicidal effect rating: 0 (Herbicidal rate of 5% or less (almost no effect))
Italian ryegrass [23]; [28]
  herbicidal effect on K: Italian ryegrass (criteria 0-5): 4 (Herbicidal rate of 70% or more and less than 90%)
Chickweed [24]; [28]
  herbicidal effect on P: chickweed (criteria 0-5): 5 (Herbicidal rate of 90% or more (almost completely withered))
Lambsquarters [25]; [28]
  herbicidal effect on O: lambsquarters (criteria 0-5): 4 (Herbicidal rate of 70% or more and less than 90%)

## CCCC(=O)Oc1c(C)nn(C)c(=O)c1-c1c(-c2ccc(OCC)cc2)sc2cc(OC)ccc12 [3-073]
Velvetleaf [1]
  M: velvetleaf, herbicidal effect grade: 0 (Herbicidal rate of 5% or less (almost no effect))
Wild oat [2]; three weeks after application
  I: wild oat, herbicidal effect grade: 0 (Herbicidal rate of 5% or less (almost no effect))
Italian ryegrass [3]
  K: Italian ryegrass, herbicidal effect grade: 0 (Herbicidal rate of 5% or less (almost no effect))
Blackgrass [4]
  J: blackgrass, herbicidal effect grade: 0 (Herbicidal rate of 5% or less (almost no effect))
Barnyard grass [5]
  H: barnyard grass, herbicidal effect grade: 3 (Herbicidal rate of 40% or more and less than 70%)
False cleavers [6]
  Q: false cleavers, herbicidal effect grade: 2 (Herbicidal rate of 20% or more and less than 40%)
Persian speedwell [7]
  R: persian speedwell, herbicidal effect grade: 4 (Herbicidal rate of 70% or more and less than 90%)
Green foxtail [8]; three weeks after application
  G: green foxtail, herbicidal effect grade: 0 (Herbicidal rate of 5% or less (almost no effect))
Lambsquarters [9]
  O: lambsquarters, herbicidal effect grade: 3 (Herbicidal rate of 40% or more and less than 70%)
Green foxtail [26]
  G: green foxtail, herbicidal effect grade: 3 (Herbicidal rate of 40% or more and less than 70%)
Redroot pigweed [10]; three weeks after application
  N: redroot pigweed, herbicidal effect grade: 3 (Herbicidal rate of 40% or more and less than 70%)
Velvetleaf [11]; three weeks after application
  M: velvetleaf, herbicidal effect grade: 3 (Herbicidal rate of 40% or more and less than 70%)
Southern crabgrass [12]
  F: southern crabgrass, herbicidal effect grade: 3 (Herbicidal rate of 40% or more and less than 70%)
Barnyard grass [13]; three weeks after application
  H: barnyard grass, herbicidal effect grade: 0 (Herbicidal rate of 5% or less (almost no effect))
False cleavers [15]; three weeks after application
  Q: false cleavers, herbicidal effect grade: 4 (Herbicidal rate of 70% or more and less than 90%)
Blackgrass [16]; three weeks after application
  J: blackgrass, herbicidal effect grade: 0 (Herbicidal rate of 5% or less (almost no effect))
Windgrass [17]; three weeks after application
  L: windgrass, herbicidal effect grade: 0 (Herbicidal rate of 5% or less (almost no effect))
Wild oat [18]
  I: wild oat, herbicidal effect grade: 0 (Herbicidal rate of 5% or less (almost no effect))
Southern crabgrass [19]; three weeks after application
  F: southern crabgrass, herbicidal effect grade: 2 (Herbicidal rate of 20% or more and less than 40%)
Chickweed [20]
  P: chickweed, herbicidal effect grade: 4 (Herbicidal rate of 70% or more and less than 90%)
Persian speedwell [21]; three weeks after application
  R: persian speedwell, herbicidal effect grade: 5 (Herbicidal rate of 90% or more (almost completely withered))
Windgrass [22]
  L: windgrass, herbicidal effect grade: 0 (Herbicidal rate of 5% or less (almost no effect))
Italian ryegrass [23]; three weeks after application
  K: Italian ryegrass, herbicidal effect grade: 0 (Herbicidal rate of 5% or less (almost no effect))
Chickweed [24]; three weeks after application
  P: chickweed, herbicidal effect grade: 5 (Herbicidal rate of 90% or more (almost completely withered))
Lambsquarters [25]; three weeks after application
  O: lambsquarters, herbicidal effect grade: 2 (Herbicidal rate of 20% or more and less than 40%)
Redroot pigweed [27]
  N: redroot pigweed, herbicidal effect grade: 4 (Herbicidal rate of 70% or more and less than 90%)
